# Earlier results, collected in patent US20080039428A1, “Antiretroviral combination therapy” (Panacos Pharmaceuticals, Inc., priority 2006, published 2008).
# Test system: HIV
smiles,measurement,value
"C=C(C)[C@@H]1CC[C@]2(C(=O)O)CC[C@]3(C)[C@H](CC[C@@H]4[C@@]5(C)CC[C@H](OC(=O)CC(C)(C)C(=O)O)C(C)(C)[C@@H]5CC[C@]43C)[C@@H]12 [DSB, 3-O-(3′,3′-dimethylsuccinyl)betulinic acid]",inhibition of HIV replication,potent inhibitor of HIV replication
